Experimental data: article PMC6887720 (Pharmacology Research & Perspectives, 2019)
Read-outs that look alike come from different tables or passages of the source. One block for each molecule: values may come before it. Residues, ends and D or L forms follow the SMILES beside them. No end group written: not given here.

Legend:
[1] = system: mouse MrgX2 versus human MrgX2; settings: cited from earlier work
[2] = system: U2OS cells (untransfected); assay: Ca2+ mobilization in U2OS cells lacking MrgX2; assay type: cell-based, human
[3] = system: rat; assay: Intravenous pharmacokinetic study in rat: observed adverse signs; assay type: in vivo; settings: intravenous bolus 5 mg/kg
[4] = biological target: EED (embryonic ectoderm development) (Homo sapiens, UniProt O75530); assay: Binding to EED
Sequence of EED (embryonic ectoderm development) (O75530 whole entry, species assumed): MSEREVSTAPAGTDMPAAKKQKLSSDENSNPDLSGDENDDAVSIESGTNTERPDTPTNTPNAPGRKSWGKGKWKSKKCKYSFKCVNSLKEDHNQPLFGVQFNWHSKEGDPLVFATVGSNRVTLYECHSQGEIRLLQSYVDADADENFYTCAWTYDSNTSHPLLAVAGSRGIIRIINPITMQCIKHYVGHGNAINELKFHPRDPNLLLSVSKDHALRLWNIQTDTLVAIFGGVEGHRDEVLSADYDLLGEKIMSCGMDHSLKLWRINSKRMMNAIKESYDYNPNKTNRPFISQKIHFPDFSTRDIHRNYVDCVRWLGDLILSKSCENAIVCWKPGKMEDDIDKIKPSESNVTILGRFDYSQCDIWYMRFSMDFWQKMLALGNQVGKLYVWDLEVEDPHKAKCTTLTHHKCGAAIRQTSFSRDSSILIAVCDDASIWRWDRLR

[5] = system: HEK293-MSRII-Gα16 cells; assay: Ca2+ mobilization, untransfected HEK293-MSRII-Gα16 host cells; assay type: cell-based, human; settings: data not shown
[6] = biological target: human MrgX1 (hMrgX1) (Homo sapiens, UniProt Q96LB2); assay: Ca2+ mobilization; assay type: cell-based; settings: hMrgX1-Gα16 cells
Sequence of human MrgX1 (hMrgX1) (Q96LB2 whole entry): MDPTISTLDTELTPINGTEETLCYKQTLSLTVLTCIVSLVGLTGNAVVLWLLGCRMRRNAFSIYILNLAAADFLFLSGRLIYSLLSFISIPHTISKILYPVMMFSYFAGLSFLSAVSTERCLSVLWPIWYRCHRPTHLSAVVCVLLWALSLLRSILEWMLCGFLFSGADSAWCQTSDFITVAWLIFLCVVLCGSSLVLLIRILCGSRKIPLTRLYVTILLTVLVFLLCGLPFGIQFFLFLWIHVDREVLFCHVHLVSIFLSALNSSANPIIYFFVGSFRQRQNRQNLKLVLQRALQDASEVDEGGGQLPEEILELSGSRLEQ

[7] = system: rat MrgX2 (rMrgX2, Mrgprb3); assay: Ca2+ mobilization; assay type: cell-based; settings: for calcium response (in words): no Gα16
[8] = biological target: T1, human MrgX2 (hMrgX2) (Homo sapiens, UniProt Q96LB1); assay: Ca2+ mobilization; assay type: cell-based
T1 sequence (Q96LB1 1-330): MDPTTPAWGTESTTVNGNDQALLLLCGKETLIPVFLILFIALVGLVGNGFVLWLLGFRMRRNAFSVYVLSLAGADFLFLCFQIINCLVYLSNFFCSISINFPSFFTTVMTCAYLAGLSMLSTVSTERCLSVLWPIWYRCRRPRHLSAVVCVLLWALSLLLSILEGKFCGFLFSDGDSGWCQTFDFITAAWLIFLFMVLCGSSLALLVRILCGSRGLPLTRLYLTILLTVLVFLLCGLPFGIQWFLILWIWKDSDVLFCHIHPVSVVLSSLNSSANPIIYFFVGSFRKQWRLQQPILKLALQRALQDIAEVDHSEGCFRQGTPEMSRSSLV

[9] = system: mpMrgX2; assay: Ca2+ mobilization, mpMrgX2 transfected into HEK293-MSRII-Gα16 cells; assay type: cell-based, minipig; settings: data not shown
[10] = biological target: T2, minipig MrgX2 (mpMrgX2) (Sus scrofa, UniProt A0A4Y5P9C0); assay: Ca2+ mobilization; assay type: cell-based; settings: for calcium response (in words): truncated mpMrgX2
T2 sequence (A0A4Y5P9C0 38-367): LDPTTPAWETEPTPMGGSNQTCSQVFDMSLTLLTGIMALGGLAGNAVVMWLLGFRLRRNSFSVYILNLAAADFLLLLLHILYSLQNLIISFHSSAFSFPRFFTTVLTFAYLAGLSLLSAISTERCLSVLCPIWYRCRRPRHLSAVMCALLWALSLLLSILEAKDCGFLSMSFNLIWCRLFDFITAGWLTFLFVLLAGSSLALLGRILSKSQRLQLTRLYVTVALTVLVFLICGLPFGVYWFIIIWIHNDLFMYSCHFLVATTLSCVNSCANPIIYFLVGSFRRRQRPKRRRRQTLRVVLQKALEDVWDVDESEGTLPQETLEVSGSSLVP

[11] = biological target: T3, truncated beagle MrgX2 (beMrgX2) (Canis lupus familiaris, UniProt A0A4Y5P885); assay: Ca2+ mobilization; assay type: cell-based, beagle dog; settings: for calcium response (in words): truncated beMrgX2
T3 sequence (A0A4Y5P885 88-417): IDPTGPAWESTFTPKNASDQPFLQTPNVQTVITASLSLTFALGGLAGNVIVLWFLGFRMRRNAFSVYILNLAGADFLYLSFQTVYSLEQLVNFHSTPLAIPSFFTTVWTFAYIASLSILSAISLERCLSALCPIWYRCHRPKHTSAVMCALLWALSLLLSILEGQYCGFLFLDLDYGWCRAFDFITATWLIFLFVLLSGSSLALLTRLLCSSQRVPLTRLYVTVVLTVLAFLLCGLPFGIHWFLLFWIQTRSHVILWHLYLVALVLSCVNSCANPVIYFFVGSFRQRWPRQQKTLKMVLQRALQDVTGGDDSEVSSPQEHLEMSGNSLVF

[12] = system: pig MrgX2 (pMrgX2); assay: Ca2+ mobilization; assay type: cell-based; settings: data not shown
[13] = biological target: T1, human MrgX2 (hMrgX2); assay: Ca2+ mobilization; assay type: cell-based; remark: listed apart in the source
[14] = dog, cited from earlier work
[15] = cited from earlier work
[16] = minipig; cited from earlier work
[17] = biological target: T4, mouse MrgX2 (mMrgX2, Mrgprb2) (Mus musculus, UniProt Q3KNA1); assay: Ca2+ mobilization; assay type: cell-based; settings: no Gα16, up to 1mM
T4 sequence (Q3KNA1 1-338): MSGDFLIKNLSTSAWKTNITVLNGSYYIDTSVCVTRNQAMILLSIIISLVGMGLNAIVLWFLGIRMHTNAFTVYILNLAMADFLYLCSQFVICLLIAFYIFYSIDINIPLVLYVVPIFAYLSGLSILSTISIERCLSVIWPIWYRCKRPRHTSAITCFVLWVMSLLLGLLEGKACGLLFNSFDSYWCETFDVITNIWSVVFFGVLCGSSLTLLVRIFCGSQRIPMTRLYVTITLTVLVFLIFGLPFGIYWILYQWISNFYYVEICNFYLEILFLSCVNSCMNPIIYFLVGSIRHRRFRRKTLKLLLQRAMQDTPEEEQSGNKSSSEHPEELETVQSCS

[18] = untransfected U2OS parent cells

Molecule: CAS #: 130308-48-4 [Icatibant]
fold less potent at mouse than human MrgX2 [1]: twofold
calcium response (in words) [2, 18]: No U2OS calcium response

Molecule: CCCC[C@@H]1NC(=O)[C@@](C)(NC(C)=O)CCCC=CCCC[C@@](C)(C(=O)N[C@@H](CC(N)=O)C(=O)N[C@@H](CCCNC(=N)N)C(=O)N[C@@H](CCC(N)=O)C(=O)N[C@@H](CCCCN)C(=O)N[C@H](C(=O)N[C@@H](CC(C)C)C(=O)N[C@@H](CCC(=O)O)C(=O)N[C@@H](CCCNC(=N)N)C(=O)N[C@H](C(=O)N[C@@]2(C)CCCC=CCCC[C@@](C)(C(=O)N[C@@H](CCC(=O)O)C(=O)N[C@@H](Cc3c[nH]c4ccccc34)C(=O)N[C@@H](CCCCN)C(=O)N[C@@H](CCC(N)=O)C(=O)N[C@@H](CCCNC(=N)N)C(N)=O)NC(=O)[C@H](CC(N)=O)NC(=O)[C@H](CC(C)C)NC(=O)[C@H]([C@@H](C)CC)NC2=O)[C@@H](C)O)[C@@H](C)CC)NC(=O)[C@H](CO)NC(=O)[C@H](Cc2ccccc2)NC1=O (relative stereo) [Peptide 4]
time to observation of symptoms [3]: ≤ 3 min
IC50 (binding to EED) [4]: high affinity

Molecule: NCCc1c[nH]cn1 [histamine]
calcium response (in words) [5]: did not cause calcium release

Molecule: VGRPEWWMDYNKRYG [BAM8-22]
calcium response (in words) [6]: higher potency at hMrgX1‐Gα16 cells

Molecule: C[C@@H](O)[C@@H]1NC(=O)[C@H](CCCCN)NC(=O)[C@H](Cc2c[nH]c3ccccc23)NC(=O)[C@H](Cc2ccccc2)NC(=O)[C@H](Cc2ccccc2)NC(=O)[C@H](CC(N)=O)NC(=O)[C@H](CCCCN)NC(=O)[C@@H](NC(=O)[C@@H]2CCCN2)CSSC[C@@H](C(=O)N[C@@H](CCCCN)C(=O)O)NC(=O)[C@H](CO)NC(=O)[C@H](CO)NC(=O)[C@H](Cc2ccccc2)NC1=O [Cortistatin-14] (HELM PEPTIDE1{P.C.K.N.F.F.W.K.T.F.S.S.C.K}$PEPTIDE1,PEPTIDE1,2:R3-13:R3$$$V2.0)
calcium response (in words) [5]: failed to activate untransfected host cells
calcium response (in words) [7]: conferred a response
calcium response (in words) [2, 18]: No U2OS calcium response
EC50 [8]: 0.316 to 0.794 µM
calcium response (in words) [9]: conferred calcium responses

Molecule: CCCC[C@@H]1NC(=O)[C@@](C)(NC(C)=O)CCCC=CCCC[C@@](C)(C(=O)N[C@@H](CC(N)=O)C(=O)N[C@@H](CCCNC(=N)N)C(=O)N[C@@H](CCC(N)=O)C(=O)N[C@@H](CCCCN)C(=O)N[C@H](C(=O)N[C@@H](CC(C)C)C(=O)N[C@@H](CCCNC(=N)N)C(=O)N[C@@H](CCCNC(=N)N)C(=O)N[C@H](C(=O)N[C@@]2(C)CCCC=CCCC[C@@](C)(C(=O)N[C@@H](CCC(=O)O)C(=O)N[C@@H](Cc3c[nH]c4ccccc34)C(=O)N[C@@H](CCCCN)C(=O)N[C@@H](CCC(N)=O)C(=O)N[C@@H](CCCNC(=N)N)C(N)=O)NC(=O)[C@H](CC(N)=O)NC(=O)[C@H](CC(C)C)NC(=O)[C@H]([C@@H](C)CC)NC2=O)[C@@H](C)O)[C@@H](C)CC)NC(=O)[C@H](CO)NC(=O)[C@H](Cc2ccccc2)NC1=O (relative stereo) [GSK3212448]
calcium response (in words) [10]: activated
calcium response (in words) [11]: activated
calcium response (in words) [12]: activated
calcium response (in words) ([13]; hMrgX2-Gα16-U2OS cells): could activate hMrgX2‐Gα16‐U2OS
fold more potent than reference agonist 48/80 ([7]; rMrgX2 in U2OS cells): 18 fold
calcium response (in words) ([2]; U2OS cells transduced with Gα16 in the absence of hMrgX2): but not Gα16‐U2OS cells
time to observation of symptoms [3]: ≤ 2 min

EC50 [10]: 158 µM
Emax ([10]; U2OS): 84 ± 13%
calcium response (in words) [10]: full or near‐full agonist
EC50 [11]: 25.1 µM
Emax ([11]; U2OS): 97 ± 12%
calcium response (in words) [11]: full or near‐full agonist
EC50 [13]: 39.8 µM
Emax [13]: 87 ± 8%
calcium response (in words) [17]: did not reach maximal effect at 1mM
Molecule: CN[C@H](CC(C)C)C(=O)N[C@H]1C(=O)N[C@@H](CC(N)=O)C(=O)N[C@H]2C(=O)N[C@H]3C(=O)N[C@H](C(=O)N[C@H](C(=O)O)c4cc(O)cc(O)c4-c4cc3ccc4O)[C@H](O)c3ccc(c(Cl)c3)Oc3cc2cc(c3O[C@@H]2O[C@H](CO)[C@@H](O)[C@H](O)[C@H]2O[C@H]2C[C@](C)(N)[C@H](O)[C@H](C)O2)Oc2ccc(cc2Cl)[C@H]1O [vancomycin]
free Cmax ([14]; assuming 50% protein binding): ≈ 35 µmol/L
Cmax [14]: ≈ 100 µg/ml
histamine-like symptoms (in words) [14]: no histamine‐like symptoms were observed
protein binding ([15]; serum): 50%
Cmax ([15]; vancomycin-treated patients): > 30 µM
trough (lowest) free serum concentration ([15]; vancomycin-treated patients): ≈ 5 ± 2 µmol/L
trough serum concentration ([15]; vancomycin-treated patients): 13.6 ± 5.9 mg/L
calcium response (in words) [7]: did not reach maximal effect at 1mM
calcium response (in words) [2, 18]: Negligible calcium responses
Cmax [16]: 34000 ng/mL
free Cmax [16]: ≈ 23 µmol/L
histamine-like symptoms (in words) [16]: no histamine‐like symptoms were observed
